Laboratory results taken from ChEMBL document CHEMBL1287767, “Experimental solubility profiling of marketed CNS drugs, exploring solubility limit of CNS discovery candidate” (Bioorg Med Chem Lett, 2010).
Converted amounts (≈) assume the structure as drawn.

Key:
[1] = Solubility of the compound in 0.1 M phosphate buffer at 600 uM at pH 7.4 after 24 hrs by LC/MS/MS analysis; conditions: for solubility at 24 h, 600 µM: pH 7.4
[2] = Solubility of the compound at pH 7.95; format: physicochemical; conditions: buffer
[3] = Solubility of the compound in water; format: physicochemical
[4] = Solubility of the compound; format: physicochemical
[5] = Solubility of the compound at pH 7.4; format: physicochemical; conditions: buffer

For `CCC1(c2cccc(O)c2)CCCCN(C)C1` (stereo unspecified) [MEPTAZINOL], the solubility at 24 h, 600 µM ([1]; 0.1 M phosphate buffer) was over 500 µM.

Work on `COCC1CN=C(c2ccccc2Cl)c2cc(Br)ccc2N1C` (stereo unspecified) [METACLAZEPAM] yielded a solubility at 24 h, 600 µM ([1]; 0.1 M phosphate buffer) of 3.52 µM (≈ 1.39 µg/mL).

`COC(=O)C(c1ccccc1)C1CCCCN1` (stereo unspecified) [METHYLPHENIDATE] gave a solubility at 24 h, 600 µM ([1]; 0.1 M phosphate buffer) of 411 µM (≈ 95.9 µg/mL).

Compound `Cc1ncc2n1-c1ccc(Cl)cc1C(c1ccccc1F)=NC2` [MIDAZOLAM] has a solubility at 24 h, 600 µM ([1]; 0.1 M phosphate buffer) of 392 µM (≈ 128 µg/mL) and a solubility [2] of 55 µg/mL (≈ 169 µM).

`CN1CCN2c3ncccc3Cc3ccccc3C2C1` (stereo unspecified) [MIRTAZAPINE] showed a solubility at 24 h, 600 µM ([1]; 0.1 M phosphate buffer) of over 500 µM.

Compound `O=C(NCCN1CCOCC1)c1ccc(Cl)cc1` [MOCLOBEMIDE] has a solubility at 24 h, 600 µM ([1]; 0.1 M phosphate buffer) of over 500 µM.

In the case of `NC(=O)C[S+]([O-])C(c1ccccc1)c1ccccc1` (stereo unspecified) [MODAFINIL], the solubility at 24 h, 600 µM ([1]; 0.1 M phosphate buffer) is reported as over 500 µM.

Work on `O=C1CC[C@@]2(O)[C@H]3Cc4ccc(O)c5c4[C@@]2(CCN3CC2CC2)[C@H]1O5` [NALTREXONE] yielded a solubility at 24 h, 600 µM ([1]; 0.1 M phosphate buffer) of over 500 µM.

In the case of `CCc1nn(CCCN2CCN(c3cccc(Cl)c3)CC2)c(=O)n1CCOc1ccccc1` [NEFAZODONE], the solubility at 24 h, 600 µM ([1]; 0.1 M phosphate buffer) is reported as 9.9 µM (≈ 4.65 µg/mL).

Work on `Cc1cc2c(s1)Nc1ccccc1N=C2N1CCN(C)CC1` [OLANZAPINE] yielded a solubility at 24 h, 600 µM ([1]; 0.1 M phosphate buffer) of over 500 µM.

`NC(=O)N1c2ccccc2CC(=O)c2ccccc21` [OXCARBAZEPINE] gave a solubility at 24 h, 600 µM ([1]; 0.1 M phosphate buffer) of 245 µM (≈ 61.8 µg/mL) and a solubility [3] of 308 µg/mL (≈ 1220 µM).

`Fc1ccc([C@@H]2CCNC[C@H]2COc2ccc3c(c2)OCO3)cc1` [PAROXETINE] showed a solubility at 24 h, 600 µM ([1]; 0.1 M phosphate buffer) of over 500 µM.

Work on `CCCN1C[C@H](CSC)C[C@@H]2c3cccc4[nH]cc(c34)C[C@H]21` [PERGOLIDE] yielded a solubility at 24 h, 600 µM ([1]; 0.1 M phosphate buffer) of 2.1 µM (≈ 0.66 µg/mL).

`O=C1NC(=O)C(c2ccccc2)(c2ccccc2)N1` [PHENYTOIN] gave a solubility at 24 h, 600 µM ([1]; 0.1 M phosphate buffer) of 80 µM (≈ 20.2 µg/mL) and a solubility [3] of 32 µg/mL (≈ 127 µM).

With `CCCN[C@H]1CCc2nc(N)sc2C1` [PRAMIPEXOLE] the solubility at 24 h, 600 µM ([1]; buffer) was over 500 µM and the solubility [4] was over 10000 µg/mL.

Work on `NC(=O)CCC/N=C(\c1ccc(Cl)cc1)c1cc(F)ccc1O` [PROGABIDE] yielded a solubility at 24 h, 600 µM ([1]; 0.1 M phosphate buffer) of 55.2 µM (≈ 18.5 µg/mL).

Compound `CCC(=O)O[C@](Cc1ccccc1)(c1ccccc1)[C@H](C)CN(C)C` [PROPOXYPHENE] has a solubility at 24 h, 600 µM ([1]; 0.1 M phosphate buffer) of 250 µM (≈ 84.9 µg/mL).

`Fc1ccccc1C1=NCC(=S)N(CC(F)(F)F)c2ccc(Cl)cc21` [QUAZEPAM] showed a solubility at 24 h, 600 µM ([1]; 0.1 M phosphate buffer) of 0.3 µM (≈ 0.116 µg/mL).

`OCCOCCN1CCN(C2=Nc3ccccc3Sc3ccccc32)CC1` [QUETIAPINE] showed a solubility at 24 h, 600 µM ([1]; buffer) of 310 µM (≈ 119 µg/mL).

For `CCOc1ccccc1OC(c1ccccc1)C1CNCCO1` (stereo unspecified) [REBOXETINE], the solubility at 24 h, 600 µM ([1]; 0.1 M phosphate buffer) was over 500 µM.

Work on `CCN1CCC[C@H]1CNC(=O)c1c(OC)ccc(Br)c1OC` [REMOXIPRIDE] yielded a solubility at 24 h, 600 µM ([1]; 0.1 M phosphate buffer) of over 500 µM.

In the case of `Cc1nc2n(c(=O)c1CCN1CCC(c3noc4cc(F)ccc34)CC1)CCCC2` [RISPERIDONE], the solubility at 24 h, 600 µM ([1]; 0.1 M phosphate buffer) is reported as over 444 µM.

For `CN(C)CCc1c[nH]c2ccc(Cn3cncn3)cc12` [RIZATRIPTAN], the solubility at 24 h, 600 µM ([1]; 0.1 M phosphate buffer) was over 500 µM.

`CCCN(CCC)CCc1cccc2c1CC(=O)N2` [ROPINIROLE] showed a solubility at 24 h, 600 µM ([1]; 0.1 M phosphate buffer) of over 500 µM.

Work on `O=C1NCCN1CCN1CCC(c2cn(-c3ccc(F)cc3)c3ccc(Cl)cc23)CC1` [SERTINDOLE] yielded a solubility at 24 h, 600 µM ([1]; 0.1 M phosphate buffer) of 18.1 µM (≈ 7.98 µg/mL).

In the case of `CN[C@H]1CC[C@@H](c2ccc(Cl)c(Cl)c2)c2ccccc21` [SERTRALINE], the solubility ([1]; buffer, pH 7.4, 24 h, 600 µM) is reported as 350 µM (≈ 107 µg/mL).

In the case of `CC(C)CC(N(C)C)C1(c2ccc(Cl)cc2)CCC1` (stereo unspecified) [SIBUTRAMINE], the solubility at 24 h, 600 µM ([1]; 0.1 M phosphate buffer) is reported as 143 µM (≈ 40 µg/mL).

For `Nc1c2c(nc3ccccc13)CCCC2` [TACRINE], the solubility at 24 h, 600 µM ([1]; buffer) was over 500 µM and the solubility [3] was 217 µg/mL (≈ 1090 µM).

Work on `C=CCN1CCc2nc(N)sc2CC1` [TALIPEXOLE] yielded a solubility at 24 h, 600 µM ([1]; 0.1 M phosphate buffer) of 133 µM (≈ 27.8 µg/mL).

`Cc1ccsc1C(=CCCN1CCC[C@@H](C(=O)O)C1)c1sccc1C` [TIAGABINE] gave a solubility at 24 h, 600 µM ([1]; 0.1 M phosphate buffer) of over 500 µM.

Compound `Cc1ccc(C(=O)c2cc(O)c(O)c([N+](=O)[O-])c2)cc1` [TOLCAPONE] has a solubility at 24 h, 600 µM ([1]; 0.1 M phosphate buffer) of over 500 µM and a solubility [5] of 115 µg/mL.

In the case of `CC1(C)O[C@@H]2[C@@H](CO[C@@]3(COS(N)(=O)=O)OC(C)(C)O[C@@H]23)O1` [TOPIRAMATE], the solubility at 24 h, 600 µM ([1]; 0.1 M phosphate buffer) is reported as over 500 µM and the solubility [3] is reported as 9800 µg/mL (≈ 28900 µM).

For `COc1cccc(C2(O)CCCCC2CN(C)C)c1` (stereo unspecified) [TRAMADOL], the solubility at 24 h, 600 µM ([1]; 0.1 M phosphate buffer) was over 500 µM.

In the case of `Cc1nnc2n1-c1ccc(Cl)cc1C(c1ccccc1Cl)=NC2` [TRIAZOLAM], the solubility at 24 h, 600 µM ([1]; 0.1 M phosphate buffer) is reported as 35.9 µM (≈ 12.3 µg/mL).

In the case of `CN1[C@@H]2CC[C@H]1C[C@@H](OC(=O)c1c[nH]c3ccccc13)C2` [TROPISETRON], the solubility at 24 h, 600 µM ([1]; 0.1 M phosphate buffer) is reported as over 500 µM.

With `CCCC(CCC)C(=O)O` [VALPROIC ACID] the solubility at 24 h, 600 µM ([1]; 0.1 M phosphate buffer) was over 500 µM.

`C=CC(N)CCC(=O)O` (stereo unspecified) [VIGABATRIN] showed a solubility at 24 h, 600 µM ([1]; 0.1 M phosphate buffer) of over 500 µM.

For `O=C1Cc2cc(CCN3CCN(c4nsc5ccccc45)CC3)c(Cl)cc2N1` [ZIPRASIDONE], the solubility at 24 h, 600 µM ([1]; 0.1 M phosphate buffer) was 1.05 µM (≈ 0.434 µg/mL) and the solubility [4] was 0.08 µg/mL (≈ 0.194 µM).

`CN(C)CCc1c[nH]c2ccc(C[C@H]3COC(=O)N3)cc12` [ZOLMITRIPTAN] gave a solubility at 24 h, 600 µM ([1]; 0.1 M phosphate buffer) of over 500 µM.

`Cc1ccc(-c2nc3ccc(C)cn3c2CC(=O)N(C)C)cc1` [ZOLPIDEM] showed a solubility at 24 h, 600 µM ([1]; 0.1 M phosphate buffer) of 260 µM (≈ 79.9 µg/mL) and a solubility [5] of over 250 µM.

`NS(=O)(=O)Cc1noc2ccccc12` [ZONISAMIDE] showed a solubility at 24 h, 600 µM ([1]; 0.1 M phosphate buffer) of over 500 µM.

`CN1CCN(C(=O)OC2c3nccnc3C(=O)N2c2ccc(Cl)cn2)CC1` (stereo unspecified) [ZOPICLONE] gave a solubility at 24 h, 600 µM ([1]; 0.1 M phosphate buffer) of 219 µM (≈ 85.2 µg/mL).
